This passage reports IC50 results from ChEMBL document CHEMBL1144377, “Oximinoarylsulfonamides as potent HIV protease inhibitors” (Bioorg Med Chem Lett, 2005).

SMILES strings stand for the structures.

For experiment [1], the system named is Human immunodeficiency virus 1. Kind of experiment: Inhibitory concentration against wild type human immunodeficiency virus. The format is functional, organism-based.
The subject of experiment [2] is Human immunodeficiency virus 1. Description: Inhibitory concentration against resistant (A17) human immunodeficiency virus. The format is functional, organism-based.

For the compound `Cc1nc(CN2CCN([C@H](C(=O)N[C@@H](Cc3ccccc3)[C@H](O)CN(CC(C)C)S(=O)(=O)c3ccc(NC=O)cc3)C(C)C)C2=O)cs1`, the values for the IC50 in experiment [1] and in experiment [2] were 168 nM and 2410 nM, respectively.

Turning to `Cc1cccc(C)c1OCC(=O)N[C@@H](Cc1ccccc1)[C@@H](O)C[C@H](Cc1ccccc1)NC(=O)[C@H](C(C)C)N1CCCNC1=O` [LOPINAVIR], the IC50 in experiment [2] came to 1240 nM. With `Cc1nc(CN2CCN([C@H](C(=O)N[C@@H](Cc3ccccc3)[C@H](O)CN(CC(C)C)S(=O)(=O)c3ccc(C#N)cc3)C(C)C)C2=O)cs1`, the IC50 in experiment [1] came to 148 nM; in experiment [2], 1170 nM.

On to `C=Cc1ccc(S(=O)(=O)N(CC(C)C)C[C@@H](O)[C@H](Cc2ccccc2)NC(=O)[C@H](C(C)C)N2CCN(Cc3csc(C)n3)C2=O)cc1`, for which the figures for the IC50 in experiment [1] and in experiment [2] were 101 nM and 957 nM, respectively.

Take `Cc1nc(CN2CCN([C@H](C(=O)N[C@@H](Cc3ccccc3)[C@H](O)CN(CC(C)C)S(=O)(=O)c3cccc(CO)c3)C(C)C)C2=O)cs1`: the IC50 in experiment [1] is 45 nM; in experiment [2] it was 910 nM. The like results for `CC(=O)Nc1ccc(S(=O)(=O)N(CC(C)C)C[C@@H](O)[C@H](Cc2ccccc2)NC(=O)[C@H](C(C)C)N2CCN(Cc3csc(C)n3)C2=O)cc1` were, in that order, 312 nM and 1520 nM. The like results for `Cc1nc(CN2CCN([C@H](C(=O)N[C@@H](Cc3ccccc3)[C@H](O)CN(CC(C)C)S(=O)(=O)c3ccc(C(N)=O)cc3)C(C)C)C2=O)cs1` were, in that order, 254 nM and 944 nM. The matching figures for `Cc1nc(CN2CCN([C@H](C(=O)N[C@@H](Cc3ccccc3)[C@H](O)CN(CC(C)C)S(=O)(=O)c3ccc(/C=N\O)cc3)C(C)C)C2=O)cs1`: 5 nM and 31 nM.

Turning to `Cc1nc(CN2CCN([C@H](C(=O)N[C@@H](Cc3ccccc3)[C@H](O)CN(CC(C)C)S(=O)(=O)c3ccc(N)cc3)C(C)C)C2=O)cs1`, the IC50 in experiment [1] is 31 nM; in experiment [2], 311 nM. The like results for `CC(C)CN(C[C@@H](O)[C@H](Cc1ccccc1)NC(=O)O[C@H]1CCOC1)S(=O)(=O)c1ccc(N)cc1` were, in that order, 109 nM and 3720 nM. Consider `Cc1nc(CN2CCN([C@H](C(=O)N[C@@H](Cc3ccccc3)[C@H](O)CN(CC(C)C)S(=O)(=O)c3ccc(C(=O)O)cc3)C(C)C)C2=O)cs1`, for which the results for the IC50 in experiment [1] and in experiment [2] were 10000 nM and 9440 nM, respectively.

As for `CC(=O)c1ccc(S(=O)(=O)N(CC(C)C)C[C@@H](O)[C@H](Cc2ccccc2)NC(=O)[C@H](C(C)C)N2CCN(Cc3csc(C)n3)C2=O)cc1`, the IC50 is 39 nM in experiment [1] and 680 nM in experiment [2]. Regarding `Cc1nc(CN2CCN([C@H](C(=O)N[C@@H](Cc3ccccc3)[C@H](O)CN(CC(C)C)S(=O)(=O)c3cccc(/C=N\O)c3)C(C)C)C2=O)cs1`, the values for the IC50 in experiment [1] and in experiment [2] were 16 nM and 222 nM, respectively. Regarding `Cc1nc(CN2CCN([C@H](C(=O)N[C@@H](Cc3ccccc3)[C@H](O)CN(CC(C)C)S(=O)(=O)c3ccc(CO)cc3)C(C)C)C2=O)cs1`, the IC50 in experiment [1] is 61 nM; in experiment [2], 99 nM. The matching figures for `Cc1nc(CN2CCN([C@H](C(=O)N[C@@H](Cc3ccccc3)[C@H](O)CN(CC(C)C)S(=O)(=O)c3ccc(C(=N)NO)cc3)C(C)C)C2=O)cs1`: 143 nM and 523 nM.

For the compound `CO/N=C\c1ccc(S(=O)(=O)N(CC(C)C)C[C@@H](O)[C@H](Cc2ccccc2)NC(=O)[C@H](C(C)C)N2CCN(Cc3csc(C)n3)C2=O)cc1`, the results for the IC50 in experiment [1] and in experiment [2] were 653 nM and 3010 nM, respectively.

Consider `Cc1nc(CN2CCN([C@H](C(=O)N[C@@H](Cc3ccccc3)[C@H](O)CN(CC(C)C)S(=O)(=O)c3ccc(C=O)cc3)C(C)C)C2=O)cs1`, for which the figures for the IC50 in experiment [1] and in experiment [2] were 51 nM and 206 nM, respectively. Take `Cc1nc(CN2CCN([C@H](C(=O)N[C@@H](Cc3ccccc3)[C@H](O)CN(CC(C)C)S(=O)(=O)c3ccc(NS(C)(=O)=O)cc3)C(C)C)C2=O)cs1`: the results for the IC50 in experiment [1] and in experiment [2] were 1190 nM and 10000 nM, respectively.

Compound `CC(C)c1nc(CN(C)C(=O)N[C@H](C(=O)N[C@@H](Cc2ccccc2)C[C@H](O)[C@H](Cc2ccccc2)NC(=O)OCc2cncs2)C(C)C)cs1` [RITONAVIR] returned an IC50 in experiment [2] of 3440 nM.

One may read the IC50 as the point on the concentration scale where inhibition reaches its midpoint. High values mean weaker potency in that assay, low ones greater potency in that assay.
